≈ marks a conversion by molar mass, not a printed value. Like-named read-outs stand apart in the source and are kept apart here. Ends that are not written are not given here. Peptide text beside a SMILES is read from it. * marks the point of attachment. Decanoyl = CCCCCCCCCC(=O)*; Butyryl = CCCC(=O)*
Columns and labels:
[1] = test system: E. coli HP73; test: microbe, parasite or virus in culture; format: cell-based, Escherichia coli; conditions: read-out: MICs, E. coli HP73
Description: (§1) Escherichia coli ATCC25922, E. coli UB1005, Pseudomonas aeruginosa ATCC27853, Salmonella typhimurium ATCC14028, S. typhimurium C7731, Staphylococcus aureus ATCC29213, Methicillin-resistant S. aureus (MRSA) ATCC43300, S. epidermidis ATCC12228, and Enterococcus faecalis ATCC29212 were stored by the institute of animal nutrition, Northeast Agricultural University (Harbin, China). Multidrug-Resistant E. coli HP73 and E. coli HP74 were clinically isolated from swine-derived Escherichia coli and stored by the institute of animal nutrition, Northeast Agricultural University (Harbin, China).
(§2) The MICs were determined using a broth microdilution method with reference to Clinical and Laboratory Standards Institute (CLSI) guidelines ([Wiegand et al., 2008]). After a two-fold serial dilution of the peptides (50 μl, dilution buffer: 0.01% acetic acid containing 0.2% BSA) prepared in a 96-well plate, a series of an equal volume of bacterial solution (50 μl) prepared in Mueller-Hinton broth (MHB) were added to the same 96-well plate, and the final bacterial inoculum size in each well of the 96-well plate was approximately 5 × 10^5 CFU/ml. As positive and negative controls, bacteria solution without peptides and blank samples without bacteria were prepared in the same 96-well plate. […] The lowest peptide concentration at which there was no increase in optical density was referred to as the MIC.

[2] = test system: E. coli HP74; test: microbe, parasite or virus in culture; format: cell-based, Escherichia coli; conditions: read-out: MICs, E. coli HP74
Description: as §1, §2

[3] = test system: HEK293T; test: MTT cytotoxicity assay; format: cell-based, human; conditions: 1 day incubation; for Cytotoxicity toward HEK293T: at the test concentrations
Description: (§3) 3-(4,5-dimethylthiozol-2-yl)-2,5-diphenyltetrazolium bromide (MTT) assay and live/dead cell staining assay were conducted to assess the peptide cytotoxicity. For the MTT assay, cell lines were seeded and passaged twice in high-glucose Dulbecco’s modified Eagle’s medium (DMEM, containing 100 μg/ml streptomycin, 100 U/ml penicillin, and 10% vol/vol fetal bovine serum) or Dulbecco’s Modified Eagle Medium/Nutrient Mixture F-12 (DMEM/F-12, containing 100 μg/ml streptomycin, 100 U/ml penicillin, and 10% vol/vol fetal bovine serum) at a 5% CO2 incubator (37°C). The cells (approximately 50,000 cells per well) were cultured in a 96-well plate at a 5% CO2 incubator for 1 day. Then various concentrations of peptide solutions (50 μl) were added to the plate and incubated for another 1 day. The cells solution without peptides and blank samples without cells and peptides were prepared in the same 96-well plate as positive and negative controls, respectively. Subsequently, MTT (0.5 mg/ml, 20 μl per well) was added and the plate was incubated for another 4 h. Removed all supernatant from the plate and added 150 μl of dimethyl sulfoxide. Finally, a microplate reader (Tecan GENios F129004, Austria) was used to record the absorbance data at OD570 nm. Melittin was employed as a control peptide. The cell viability was calculated using the previously described equation ([Lai et al., 2021]).

[4] = test system: IPEC-J2; test: MTT cytotoxicity assay; format: cell-based, porcine; conditions: 1 day incubation; for Cytotoxicity toward IPEC-J2: at the test concentrations
Description: as §3

[5] = test system: E. coli 25922; format: cell-based, Escherichia coli; conditions: 25922, 20 h
Description: as §1, §2

[6] = test system: E. coli UB1005; format: cell-based, Escherichia coli; conditions: UB1005, 20 h
Description: as §1, §2

[7] = test system: P. aeruginosa 27853; format: cell-based, Pseudomonas aeruginosa; conditions: 27853, 20 h
Description: as §1, §2

[8] = test system: S. typhimurium 14028; format: cell-based, Salmonella typhimurium; conditions: 14028, 20 h
Description: as §1, §2

[9] = test system: S. typhimurium C7731; format: cell-based, Salmonella typhimurium; conditions: C7731, 20 h
Description: as §1, §2

[10] = test system: S. aureus 29213; format: cell-based, Staphylococcus aureus; conditions: 29213, 20 h
Description: as §1, §2

[11] = test system: S. epidermidis 12228; format: cell-based; conditions: 12228, 20 h
Description: as §1, §2

[12] = test system: E. faecalis 29212; format: cell-based, Enterococcus faecalis; conditions: 29212, 20 h
Description: as §1, §2

[13] = test system: MRSA 43300; format: cell-based, Methicillin-resistant S. aureus; conditions: 43300, 20 h
Description: as §1, §2

[14] = test system: 9 bacterial strains; test: Geometric mean MIC over the 9 bacterial strains; format: cell-based; conditions: geometric mean of the 9 strains of Table 1
Description: as §2

[15] = Escherichia coli, HP73, multidrug-resistant, colistin-resistant swine clinical isolate, broth microdilution, MHB, 37°C 20 h
[16] = Escherichia coli, HP74, multidrug-resistant, colistin-resistant swine clinical isolate, broth microdilution, MHB, 37°C 20 h
[17] = multidrug-resistant, colistin-resistant swine clinical isolate, broth microdilution, MHB, 37°C 20 h

## CC(C)(O/N=C(\C(=O)N[C@@H]1C(=O)N2C(C(=O)[O-])=C(C[n+]3ccccc3)CS[C@H]12)c1csc(N)n1)C(=O)O [Ceftazidime]
[1]; [15]
  MIC: 128 µM (≈ 70 µg/mL)
[2]; [16]
  MIC: 32 µM (≈ 17.5 µg/mL)

## CC[C@H]1OC(=O)[C@H](C)[C@@H](O[C@H]2C[C@@](C)(OC)[C@@H](O)[C@H](C)O2)[C@H](C)[C@@H](O[C@@H]2O[C@H](C)C[C@H](N(C)C)[C@H]2O)[C@](C)(O)C[C@@H](C)C(=O)[C@H](C)[C@@H](O)[C@]1(C)O [Erythromycin]
[1]; [15]
  MIC: > 128 µM
[2]; [16]
  MIC: > 128 µM

## CNC(C)C1CCC(N)C(OC2C(N)CC(N)C(OC3OCC(C)(O)C(NC)C3O)C2O)O1 (stereo not shown) [Gentamicin]
[1]; [15]
  MIC: 128 µM (≈ 61.1 µg/mL)
[2]; [16]
  MIC: 128 µM (≈ 61.1 µg/mL)

## CC[C@H](C)[C@H](NC(=O)CN)C(=O)NCC(=O)N[C@@H](C)C(=O)N[C@H](C(=O)N[C@@H](CC(C)C)C(=O)N[C@@H](CCCCN)C(=O)N[C@H](C(=O)N[C@@H](CC(C)C)C(=O)N[C@H](C(=O)N[C@H](C(=O)NCC(=O)N[C@@H](CC(C)C)C(=O)N1CCC[C@H]1C(=O)N[C@@H](C)C(=O)N[C@@H](CC(C)C)C(=O)N[C@H](C(=O)N[C@@H](CO)C(=O)N[C@@H](Cc1c[nH]c2ccccc12)C(=O)N[C@H](C(=O)N[C@@H](CCCCN)C(=O)N[C@@H](CCCNC(=N)N)C(=O)N[C@@H](CCCCN)C(=O)N[C@@H](CCCNC(=N)N)C(=O)N[C@@H](CCC(N)=O)C(=O)N[C@@H](CCC(N)=O)C(N)=O)[C@@H](C)CC)[C@@H](C)CC)[C@@H](C)O)[C@@H](C)O)C(C)C)C(C)C [Melittin, reference compound]
[3]
  Concentration above which significant cytotoxicity toward HEK293T: greater than 8 μM
[4]
  Concentration above which significant cytotoxicity toward IPEC-J2: > 16 µM

## CCn1cc(C(=O)O)c(=O)c2cc(F)c(N3CCNCC3)cc21 [Norfloxacin]
[1]; [15]
  MIC: > 128 µM
[2]; [16]
  MIC: 128 µM (≈ 40.9 µg/mL)

## CC1COc2c(N3CCN(C)CC3)c(F)cc3c(=O)c(C(=O)O)cn1c23 (stereo not shown) [Ofloxacin]
[1]; [15]
  MIC: > 128 µM
[2]; [16]
  MIC: > 128 µM

## CO[C@H]1/C=C/O[C@@]2(C)Oc3c(C)c(O)c4c(O)c(c(/C=N/N5CCN(C)CC5)c(O)c4c3C2=O)NC(=O)/C(C)=C\C=C\[C@H](C)[C@H](O)[C@@H](C)[C@@H](O)[C@@H](C)[C@H](OC(C)=O)[C@@H]1C [Rifampicin]
[1]; [15]
  MIC: > 128 µM
[2]; [16]
  MIC: 16 µM (≈ 13.2 µg/mL)

## CN[C@H](CC(C)C)C(=O)N[C@H]1C(=O)N[C@@H](CC(N)=O)C(=O)N[C@H]2C(=O)N[C@H]3C(=O)N[C@H](C(=O)N[C@H](C(=O)O)c4cc(O)cc(O)c4-c4cc3ccc4O)[C@H](O)c3ccc(c(Cl)c3)Oc3cc2cc(c3O[C@@H]2O[C@H](CO)[C@@H](O)[C@H](O)[C@H]2O[C@H]2C[C@](C)(N)[C@H](O)[C@H](C)O2)Oc2ccc(cc2Cl)[C@H]1O [Vancomycin]
[1]; Escherichia coli, HP73, 20 h
  MIC: 64 µM (≈ 92.8 µg/mL)
[2]; Escherichia coli, HP74, 20 h
  MIC: 32 µM (≈ 46.4 µg/mL)

## CCCC(=O)NCCCC[C@H](NC(=O)[C@H](CC(C)C)NC(=O)[C@H](CCCCN)NC(=O)[C@H](CCCCN)NC(=O)[C@H](CC(C)C)NC(=O)[C@H](CCCCNC(=O)CCC)NC(=O)[C@H](CCCCN)NC(=O)[C@H](CCCCN)NC(=O)[C@H](CC(C)C)NC(=O)[C@H](CCCCN)NC(=O)[C@H](CCCCN)NC(=O)[C@H](CC(C)C)NC(=O)[C@@H](N)Cc1c[nH]c2ccccc12)C(=O)N[C@@H](CCCCN)C(=O)N[C@@H](CCCCN)C(=O)O [WL-C4] (H-WLKKLKKK(Butyryl)LKKLK(Butyryl)KK-OH)
[5]
  MICs, E. coli 25922: 8 µM
[6]
  MICs, E. coli UB1005: 4 µM
[7]
  MICs, P. aeruginosa 27853: 2 µM
[8]
  MICs, S. typhimurium 14028: 4 µM
[9]
  MICs, S. typhimurium C7731: 4 µM
[10]
  MICs, S. aureus 29213: 16 µM
[11]
  MICs, S. epidermidis 12228: 16 µM
[12]
  MICs, E. faecalis 29212: 32 µM
[13]
  MICs, MRSA 43300: 16 µM
[14]
  GM, geometric mean MICs from the 9 bacterial strains: 8.00 µM
[3]
  Cytotoxicity toward HEK293T: no significant cytotoxicity
[4]
  Cytotoxicity toward IPEC-J2: no significant cytotoxicity

## CCCCCCCCCC(=O)NCCCC[C@H](NC(=O)[C@H](CC(C)C)NC(=O)[C@H](CCCCN)NC(=O)[C@H](CCCCN)NC(=O)[C@H](CC(C)C)NC(=O)[C@H](CCCCNC(=O)CCCCCCCCC)NC(=O)[C@H](CCCCN)NC(=O)[C@H](CCCCN)NC(=O)[C@H](CC(C)C)NC(=O)[C@H](CCCCN)NC(=O)[C@H](CCCCN)NC(=O)[C@H](CC(C)C)NC(=O)[C@@H](N)Cc1c[nH]c2ccccc12)C(=O)N[C@@H](CCCCN)C(=O)N[C@@H](CCCCN)C(=O)O [WL-C10] (H-WLKKLKKK(Decanoyl)LKKLK(Decanoyl)KK-OH)
[5]
  MICs, E. coli 25922: >64 µM
[6]
  MICs, E. coli UB1005: 16 µM
[7]
  MICs, P. aeruginosa 27853: >128 µM
[8]
  MICs, S. typhimurium 14028: >128 µM
[9]
  MICs, S. typhimurium C7731: >128 µM
[10]
  MICs, S. aureus 29213: >128 µM
[11]
  MICs, S. epidermidis 12228: >128 µM
[12]
  MICs, E. faecalis 29212: >128 µM
[13]
  MICs, MRSA 43300: >128 µM
[14]
  GM, geometric mean MICs from the 9 bacterial strains: 94.06 µM
[3]
  Concentration above which significant cytotoxicity toward HEK293T: greater than 32 μM
[4]
  Concentration above which significant cytotoxicity toward IPEC-J2: greater than 32 μM

## Colistin
[1]; [17]
  MIC: 4 µM
[2]; [17]
  MIC: 4 µM

## Kanamycin A
[1]; [17]
  MIC: >128 µM
[2]; [17]
  MIC: >128 µM

## Polymyxin B
[1]; [17]
  MIC: 8 µM
[2]; [17]
  MIC: 4 µM

## WLKKLKKK(Ac)LKKLK(Ac)KK [WL-C2]
[5]
  MICs, E. coli 25922: 8 µM
[6]
  MICs, E. coli UB1005: 8 µM
[7]
  MICs, P. aeruginosa 27853: 16 µM
[8]
  MICs, S. typhimurium 14028: 16 µM
[9]
  MICs, S. typhimurium C7731: 16 µM
[10]
  MICs, S. aureus 29213: 64 µM
[11]
  MICs, S. epidermidis 12228: 64 µM
[12]
  MICs, E. faecalis 29212: 128 µM
[13]
  MICs, MRSA 43300: 64 µM
[14]
  GM, geometric mean MICs from the 9 bacterial strains: 27.43 µM
[3]
  Cytotoxicity toward HEK293T: no significant cytotoxicity
[4]
  Cytotoxicity toward IPEC-J2: no significant cytotoxicity
